Measurements published in patent publication US20050176091A1, “Process for producing kiss-1 peptide” (priority 2002, published 2005).
Where no end group is shown, it is not given here.

Tested on: intracellular Ca ion concentration
Test: Biological activity assay: intracellular Ca ion concentration-increasing activity (method of Example 3 of WO 99/33976)
Type: cell-based
Conditions: compared with a sample purified from human placenta extract

KiSS-1 peptide: Human KiSS-1 peptide (SEQ ID NO: 1) obtained in Example 2 by S-cyanylation and ammonolysis of a fused protein expressed in E. coli (GTSLSPPPESSGSRQQPGLSAPHSRQIPAPQGAVLVQREKDLPNYNWNSFGLRF-NH2)
intracellular Ca ion concentration-increasing activity: equivalent to that of a sample purified from human placenta extract
